Laboratory results reported in PubChem BioAssay AID588803 (The Scripps Research Institute Molecular Screening Center, 2011).
Calls of active or inactive are those of the source. No rule for the calls is given here.

Assays:
Assay in all cases: PME-1 and off-target engagement in cells – ABPP-SILAC, LC-MS/MS, mouse cells, selectivity assay for PME-1 inhibitor project, late-stage follow-up (AID 588803)
[1] = molecular target: Platelet-activating factor acetylhydrolase 2, cytoplasmic (Mus musculus) (UniProt Q8VDG7); settings: serine hydrolase ratios, Pafah2, stronger effect = lower value
[2] = system: Lypla2; settings: serine hydrolase ratios, stronger effect = lower value
[3] = molecular target: Prolyl endopeptidase (Mus musculus) (UniProt Q9QUR6); settings: serine hydrolase ratios, Prep, stronger effect = lower value
[4] = system: Ppt2; settings: serine hydrolase ratios, stronger effect = lower value
[5] = system: Pla2g6; settings: serine hydrolase ratios, stronger effect = lower value
[6] = system: Bat5; settings: serine hydrolase ratios, stronger effect = lower value
[7] = system: Rbbp9; settings: serine hydrolase ratios, stronger effect = lower value
[8] = system: Pnpla8; settings: serine hydrolase ratios, stronger effect = lower value
[9] = system: Pafah1b2; settings: serine hydrolase ratios, stronger effect = lower value
[10] = system: Htra2; settings: serine hydrolase ratios, stronger effect = lower value
[11] = system: Abhd12; settings: serine hydrolase ratios, stronger effect = lower value
[12] = system: Pla2g15; settings: serine hydrolase ratios, stronger effect = lower value
[13] = system: Acot7; settings: serine hydrolase ratios, stronger effect = lower value
[14] = system: Faah; settings: serine hydrolase ratios, stronger effect = lower value
[15] = system: Pme1; settings: serine hydrolase ratios, stronger effect = lower value
[16] = system: Ddhd2; settings: serine hydrolase ratios, stronger effect = lower value
[17] = molecular target: Monoacylglycerol lipase ABHD6 (Mus musculus) (UniProt Q8R2Y0); settings: serine hydrolase ratios, stronger effect = lower value
[18] = molecular target: Acyl-protein thioesterase 1 (Mus musculus) (UniProt P97823); settings: serine hydrolase ratios, Lypla1, stronger effect = lower value
[19] = system: Dpp8; settings: serine hydrolase ratios, stronger effect = lower value
[20] = system: Acot2; settings: serine hydrolase ratios, stronger effect = lower value
[21] = system: Parl; settings: serine hydrolase ratios, stronger effect = lower value
[22] = system: Pgap1; settings: serine hydrolase ratios, stronger effect = lower value
[23] = system: Acot1; settings: serine hydrolase ratios, stronger effect = lower value
[24] = system: Lyplal1; settings: serine hydrolase ratios, stronger effect = lower value
[25] = system: Iah1; settings: serine hydrolase ratios, stronger effect = lower value
[26] = system: Pafah1b3; settings: serine hydrolase ratios, stronger effect = lower value
[27] = system: Prepl; settings: serine hydrolase ratios, stronger effect = lower value
[28] = system: Fasn; settings: serine hydrolase ratios, stronger effect = lower value
[29] = system: Fam108b1; settings: serine hydrolase ratios, stronger effect = lower value
[30] = system: Serhl; settings: serine hydrolase ratios, stronger effect = lower value
[31] = system: Ctsa; settings: serine hydrolase ratios, stronger effect = lower value
[32] = system: Dpp7; settings: serine hydrolase ratios, stronger effect = lower value
[33] = system: Nceh1; settings: serine hydrolase ratios, stronger effect = lower value
[34] = system: Dpp9; settings: serine hydrolase ratios, stronger effect = lower value
[35] = system: Acot9; settings: serine hydrolase ratios, stronger effect = lower value
[36] = system: Apeh; settings: serine hydrolase ratios, stronger effect = lower value
[37] = system: Abhd11; settings: serine hydrolase ratios, stronger effect = lower value
[38] = system: Prcp; settings: serine hydrolase ratios, stronger effect = lower value
[39] = system: Ache; settings: serine hydrolase ratios, stronger effect = lower value
[40] = molecular target: Palmitoyl-protein thioesterase ABHD10, mitochondrial (Mus musculus) (UniProt Q6PE15); settings: serine hydrolase ratios, stronger effect = lower value
Sequence of Palmitoyl-protein thioesterase ABHD10, mitochondrial (Mus musculus) (Q6PE15 whole entry, looked up): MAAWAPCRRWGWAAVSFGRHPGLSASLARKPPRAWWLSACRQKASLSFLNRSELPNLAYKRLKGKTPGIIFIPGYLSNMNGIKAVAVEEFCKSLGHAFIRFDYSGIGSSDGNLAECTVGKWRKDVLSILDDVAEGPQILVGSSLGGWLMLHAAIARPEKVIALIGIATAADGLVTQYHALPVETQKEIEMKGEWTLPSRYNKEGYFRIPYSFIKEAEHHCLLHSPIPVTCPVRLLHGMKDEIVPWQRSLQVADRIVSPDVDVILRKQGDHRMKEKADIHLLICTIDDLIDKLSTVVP

Sequence of Monoacylglycerol lipase ABHD6 (Mus musculus) (Q8R2Y0 whole entry, looked up): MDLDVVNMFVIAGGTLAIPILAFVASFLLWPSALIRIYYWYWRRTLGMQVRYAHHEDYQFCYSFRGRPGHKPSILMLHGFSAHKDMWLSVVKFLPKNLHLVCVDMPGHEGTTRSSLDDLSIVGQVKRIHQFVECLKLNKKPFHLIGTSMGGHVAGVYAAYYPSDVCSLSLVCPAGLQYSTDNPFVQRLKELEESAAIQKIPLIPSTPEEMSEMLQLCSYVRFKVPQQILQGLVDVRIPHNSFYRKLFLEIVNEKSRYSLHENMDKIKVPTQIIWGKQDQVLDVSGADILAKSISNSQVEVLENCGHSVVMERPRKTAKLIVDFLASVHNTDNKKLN
Sequence of Acyl-protein thioesterase 1 (Mus musculus) (P97823 whole entry, looked up): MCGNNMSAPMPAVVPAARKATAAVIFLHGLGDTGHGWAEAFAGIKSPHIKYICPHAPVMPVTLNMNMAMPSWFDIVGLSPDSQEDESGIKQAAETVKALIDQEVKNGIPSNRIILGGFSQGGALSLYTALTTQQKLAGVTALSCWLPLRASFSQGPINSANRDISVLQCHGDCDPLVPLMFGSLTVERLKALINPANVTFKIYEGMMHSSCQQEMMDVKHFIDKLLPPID
Sequence of Prolyl endopeptidase (Mus musculus) (Q9QUR6 whole entry, looked up): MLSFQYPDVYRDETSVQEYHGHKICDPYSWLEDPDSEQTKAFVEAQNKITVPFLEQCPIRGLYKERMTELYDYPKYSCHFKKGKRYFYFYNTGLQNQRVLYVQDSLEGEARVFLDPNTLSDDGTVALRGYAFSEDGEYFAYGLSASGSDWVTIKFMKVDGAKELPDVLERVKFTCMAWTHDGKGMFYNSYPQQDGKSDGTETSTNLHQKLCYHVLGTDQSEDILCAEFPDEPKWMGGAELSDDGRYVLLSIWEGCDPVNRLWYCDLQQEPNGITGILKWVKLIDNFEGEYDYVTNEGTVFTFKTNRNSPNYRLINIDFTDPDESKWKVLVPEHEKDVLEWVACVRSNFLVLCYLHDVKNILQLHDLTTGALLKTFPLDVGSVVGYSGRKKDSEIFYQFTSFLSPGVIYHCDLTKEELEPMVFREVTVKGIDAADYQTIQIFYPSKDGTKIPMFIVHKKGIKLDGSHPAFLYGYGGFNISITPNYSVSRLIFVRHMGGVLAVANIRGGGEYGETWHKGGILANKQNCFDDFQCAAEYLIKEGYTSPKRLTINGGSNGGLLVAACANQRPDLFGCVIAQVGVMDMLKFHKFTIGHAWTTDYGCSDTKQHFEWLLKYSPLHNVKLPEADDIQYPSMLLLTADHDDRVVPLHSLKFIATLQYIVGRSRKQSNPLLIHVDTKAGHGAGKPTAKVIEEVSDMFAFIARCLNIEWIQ
Sequence of Platelet-activating factor acetylhydrolase 2, cytoplasmic (Mus musculus) (Q8VDG7 whole entry, looked up): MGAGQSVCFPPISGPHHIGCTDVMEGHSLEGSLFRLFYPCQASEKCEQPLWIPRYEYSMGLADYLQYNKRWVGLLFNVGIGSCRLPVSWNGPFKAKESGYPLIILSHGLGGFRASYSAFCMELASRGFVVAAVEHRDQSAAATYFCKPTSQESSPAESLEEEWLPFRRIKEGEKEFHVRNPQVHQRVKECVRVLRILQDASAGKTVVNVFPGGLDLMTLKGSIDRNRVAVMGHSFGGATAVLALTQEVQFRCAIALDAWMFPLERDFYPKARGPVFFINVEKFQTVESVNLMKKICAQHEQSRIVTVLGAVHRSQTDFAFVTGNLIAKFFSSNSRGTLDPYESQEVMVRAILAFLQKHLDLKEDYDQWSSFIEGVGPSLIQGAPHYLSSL

COC(=O)N1C(=O)[C@](c2ccccc2)(C2CCCC2)N1C(=O)OC
SILAC ratio (probe labeling remaining) [1]: 0.913 (inactive)
SILAC ratio (probe labeling remaining) [2]: 0.927 (inactive)
SILAC ratio (probe labeling remaining) [3]: 1.01 (inactive)
SILAC ratio (probe labeling remaining) [4]: 0.812 (inactive)
SILAC ratio (probe labeling remaining) [5]: 0.796 (inactive)
SILAC ratio (probe labeling remaining) [6]: 1.06 (inactive)
SILAC ratio (probe labeling remaining) [7]: 1.06 (inactive)
SILAC ratio (probe labeling remaining) [8]: 1.09 (inactive)
SILAC ratio (probe labeling remaining) [9]: 0.887 (inactive)
SILAC ratio (probe labeling remaining) [10]: 1.07 (inactive)
SILAC ratio (probe labeling remaining) [11]: 1.13 (inactive)
SILAC ratio (probe labeling remaining) [12]: 1.01 (inactive)
SILAC ratio (probe labeling remaining) [13]: 1.32 (inactive)
SILAC ratio (probe labeling remaining) [14]: 1.06 (inactive)
SILAC ratio (probe labeling remaining) [15]: 0
SILAC ratio (probe labeling remaining) [16]: 1.19 (inactive)
SILAC ratio (probe labeling remaining) [17]: 0.98 (inactive)
SILAC ratio (probe labeling remaining) [18]: 1 (inactive)
SILAC ratio (probe labeling remaining) [19]: 0.859 (inactive)
SILAC ratio (probe labeling remaining) [20]: 0.873 (inactive)
SILAC ratio (probe labeling remaining) [21]: 0.995 (inactive)
SILAC ratio (probe labeling remaining) [22]: 1.1 (inactive)
SILAC ratio (probe labeling remaining) [23]: 0.914 (inactive)
SILAC ratio (probe labeling remaining) [24]: 1.29 (inactive)
SILAC ratio (probe labeling remaining) [25]: 1 (inactive)
SILAC ratio (probe labeling remaining) [26]: 0.962 (inactive)
SILAC ratio (probe labeling remaining) [27]: 0.931 (inactive)
SILAC ratio (probe labeling remaining) [28]: 0.971 (inactive)
SILAC ratio (probe labeling remaining) [29]: 1.2 (inactive)
SILAC ratio (probe labeling remaining) [30]: 1.12 (inactive)
SILAC ratio (probe labeling remaining) [31]: 0.869 (inactive)
SILAC ratio (probe labeling remaining) [32]: 0.846 (inactive)
SILAC ratio (probe labeling remaining) [33]: 1.01 (inactive)
SILAC ratio (probe labeling remaining) [34]: 0.937 (inactive)
SILAC ratio (probe labeling remaining) [35]: 0.889 (inactive)
SILAC ratio (probe labeling remaining) [36]: 0.821 (inactive)
SILAC ratio (probe labeling remaining) [37]: 0.946 (inactive)
SILAC ratio (probe labeling remaining) [38]: 0.717 (inactive)
SILAC ratio (probe labeling remaining) [39]: 0.689 (inactive)
SILAC ratio (probe labeling remaining) [40]: 0.951 (inactive)
